# Reference: ChEMBL document CHEMBL4627309, “Tetra-aryl cyclobutane and stilbenes from the rhizomes of Rheum undulatum and their α-glucosidase inhibitory activity: Biological evaluation, kinetic analysis, and molecular docking simulation” (Bioorg Med Chem Lett, 2020)
# Active and inactive are the calls of the source. No cut-off for these calls is given here.
# How the values were obtained:
# [1] = Inhibition of alpha-glucosidase (unknown origin) using p-NPG as substrate by spectrophotometric analysis; design: species or system Homo sapiens
# [2] = Inhibition of alpha-glucosidase (unknown origin) using p-NPG as substrate by Dixon plot analysis; design: species or system Homo sapiens
# Homo sapiens = species: Homo sapiens; test: Mixed inhibition of alpha-glucosidase (unknown origin) using p-NPG as substrate by Lineweaver-Burk plot analysis
SMILES,IC50 [1] [µM],Ki [2] [µM],inhibition (Homo sapiens)
COc1ccc(/C=C/c2cc(O)cc(O[C@@H]3O[C@H](COC(C)=O)[C@@H](O)[C@H](O)[C@H]3O)c2)cc1O,> 100,–,–
OC[C@H]1O[C@@H](Oc2cc(O)cc(/C=C/c3ccc(O)cc3)c2)[C@H](O)[C@@H](O)[C@@H]1O [PICEID],> 100,–,–
COc1ccc(/C=C/c2cc(O)cc(O[C@@H]3O[C@H](COC(=O)c4ccc(O)cc4)[C@@H](O)[C@H](O)[C@H]3O)c2)cc1,> 100,–,–
COc1ccc([C@@H]2[C@@H](c3cc(O)cc(O)c3)[C@@H](c3cc(O)cc(O)c3)[C@@H]2c2ccc(OC)c(O)c2)cc1O,80.1,–,–
COc1ccc(/C=C\c2cc(O)cc(O[C@@H]3O[C@H](COC(=O)/C=C/c4ccc(O)cc4)[C@@H](O)[C@H](O)[C@H]3O)c2)cc1,> 100,–,–
C[C@H]1O[C@H](O[C@H]2[C@H](O)[C@@H](O)[C@@H](O[C@H]3[C@H](O)[C@@H](O)C(O)O[C@@H]3CO)O[C@@H]2CO)[C@H](O)[C@@H](O)[C@@H]1N[C@H]1C=C(CO)[C@@H](O)[C@H](O)[C@H]1O (some centres undefined) [ACARBOSE],127,–,–
COc1ccc(/C=C/c2cc(O)cc(O[C@@H]3O[C@H](CO)[C@@H](O)[C@H](O)[C@H]3O)c2)cc1O [RHAPONTIN],> 100,–,–
Cc1cc(O)c2c(c1)C(=O)c1cccc(O[C@@H]3O[C@H](CO)[C@@H](O)[C@H](O)[C@H]3O)c1C2=O [PULMATIN],> 100,–,–
COc1cc(O[C@@H]2O[C@H](CO)[C@@H](O)[C@H](O)[C@H]2O)c2c(c1)C(=O)C(C)=C(C(C)=O)C2=O,> 100,–,–
COc1cc(O[C@@H]2O[C@H](CO)[C@@H](O)[C@H](O)[C@H]2O)c2c(O)c(C(C)=O)c(C)cc2c1,> 100,–,–
Cc1cc(O[C@@H]2O[C@H](CO)[C@@H](O)[C@H](O)[C@H]2O)c2c(c1)C(=O)c1cccc(O)c1C2=O [CHRYSOPHANEIN],> 100,–,–
COc1ccc(/C=C/c2cc(O)cc(O)c2)cc1O,15.4,15.3,Active
